{
  "source": "paper PMC5867665",
  "about": "“Targeting Multiple Effector Pathways in Pancreatic Ductal Adenocarcinoma with a G-Quadruplex-Binding Small Molecule” (Journal of Medicinal Chemistry, 2018)",
  "key": {"[1]": {"system": "DNA human telomeric G4 sequence 5′-d(GGGTTAGGGTTAGGGTTAGGG)-3′", "experiment": "Quantitative G4 binding (fluorescence anisotropy and direct fluorescence titrations)", "protocol": "Quantitative binding estimates as KD values were obtained from fluorescence anisotropy titrations (MM41) and direct fluorescence titrations (CM03). The DNA human telomeric G4 sequence 5′-d([…])-3′ was used to enable direct comparisons to be made with the modeling studies. Both compounds bind with nanomolar affinity to this DNA G4, with a ∼3-fold difference between MM41 (20 ± 2 nM) and CM03 (67 ± 4 nM).\nHuman telomeric DNA G4 was prepared using oligonucleotides purchased from Integrated DNA Technologies (Coralville, IA, USA). The DNA purity and sequence was verified by mass spectrometry. Desalted oligonucleotide sequences were initially suspended in 150 mM NH4OAc (pH 6.8) in nuclease-free water to yield a final concentration of 1 mM and determined spectroscopically at 260 nm using the nearest-neighbor method. […]\nFluorescence anisotropy measurements were obtained on a Variant Cary Eclipse fluorescence spectrophotometer (Agilent Technologies, Santa Clara, CA, USA) equipped with a polarization attachment. […]\nTo determine dissociation constants, MM41 was added to a 3 mL volume of the experimental buffer (50 mM KCl, 10 mM Tris-HCl, 1 mM EDTA in nuclease-free water at 25 °C, pH 7.3) in a quartz fluorescence cuvette at a fixed concentration of 50 nM, and G4 was titrated into the cuvette. […] Each set of measurements were taken from a 50 s average reading measurement (PMT = 630 V). […]"}, "[2]": {"experiment": "Maximum tolerated dose (MTD) study", "format": "in vivo", "details": "dose-escalation MTD study, IV, CD-1 nude mice", "protocol": "To determine if the in vitro activity of CM03 was paralleled in vivo, we explored the activity of CM03 in a mouse xenograft model of PDAC. We have previously reported that the maximum tolerated dosage (MTD) for intravenous (IV) administration of MM41 is 25 mg/kg.[33] CM03 was well tolerated, up to a dosage of 45–50 mg/kg, as judged by a dose-escalation MTD study. A therapeutic schedule of two CM03 intravenous (IV) doses was explored using a subcutaneous MIA PaCa-2 pancreatic tumor xenograft model derived from the human cell line used in the cell growth inhibition studies. A group size of eight CD-1 nude mice was used, and dosing was conducted at 10 and 15 mg/kg, each twice weekly, over a period of 4 weeks (28 days: 8 doses). Two further groups were given either MM41 or gemcitabine at 15 mg/kg and received the same dose regimen. […] IVIS imaging of treated mice was performed by taking account of the intrinsic fluorescence of CM03. […] Thus, in contrast to MM41 and gemcitabine, the higher-dose CM03 treatment results in a statistically significant (p < 0.001) antitumor effect, which persisted long after dosing had ceased, up to the termination of the xenograft experiment (62 days).\nThe maximum tolerated dose (MTD) studies of MM41 and CM03 were performed in CD-1 nude mice. […] Mice were monitored visually for signs of adverse effects over periods of up to 72 h. […]"}, "[3]": {"experiment": "Aqueous solubility and pH of the salt", "format": "physicochemical", "text": "The synthetic approach to the trisubstituted series adapts previously published procedures to simplify purification and increase yields of both intermediates and final compounds (Scheme 1). 5,5-Dimethyl-1,3-dibromohydantoin was used for the regioselective bromination of the starting material, enabling more efficient and convenient purification. The separation of final products was achieved using column chromatography, giving a 26% overall yield for CM03.\nCM03 was then converted to a mixed hydrochloride/formate salt in order to enhance its aqueous solubility. At a concentration of 5 mg/mL, the pH of the CM03 salt solution was 6.95."}},
  "data": [
    {"smiles": "O=C1c2ccc3c4c(c(NCCN5CCCC5)cc(c24)C(=O)N1CCCN1CCOCC1)C(=O)N(CCCN1CCOCC1)C3=O", "note": "[CM03, 2,7-bis(3-morpholinopropyl)-4-((2-(pyrrolidin-1-yl)ethyl)amino)benzo[lmn][3,8]phenanthroline-1,3,6,8(2H,7H)-tetraone]", "values": [
      {"measurement": "difference in KD between MM41 and CM03", "setting": "[1]", "value": "~3", "unit": "fold"},
      {"measurement": "well tolerated, up to a dosage of", "setting": "[2]", "value": "45 to 50", "unit": "mg/kg"},
      {"measurement": "pH of mixed chloride/formate salt", "setting": "[3]", "value": 6.9},
      {"measurement": "pH of the CM03 salt solution", "setting": "[3]; concentration of 5 mg/mL, mixed hydrochloride/formate salt", "value": 6.95}
    ]}
  ]
}
